From article PMC10049421, “Anticancer Activity of Sunitinib Analogues in Human Pancreatic Cancer Cell Cultures under Normoxia and Hypoxia” (International Journal of Molecular Sciences, 2023)
Each block holds one compound with its values, some of them ahead of it.

What was measured:
[1] = test system: PANC-1 cells; test: 'Wound healing' migration assay, PANC-1; format: cell-based, human; conditions: for inhibition of migration, hypoxia compared with normoxia: PANC-1; for 'wound' area compared to the control: PANC-1, 0.35 μM
Description: (§1) Cell migration was tested by the ‘wound’ healing assay, as described elsewhere. Briefly, MIA PaCa-2 and PANC-1 cells were seeded into 24-well plates (Corning). MIA PaCa-2 at a density of 80,000 cells/well and PANC-1 at a density of 60,000 cells/well in 500 μL of medium and incubated in a humidified atmosphere containing 5% CO2 at 37 °C for 1 day. Then the monolayers were scratched with a sterile 100 μL pipette plastic tip in the centre of the well. The old cell medium is aspirated, the wells are rinsed with 400 μL phosphate-buffered saline (PBS, Gibco). […] Photos of ‘wounds’ were taken every 24 h for 3 days and the compound effect was evaluated by measuring the size of the “wound” area. Images were analysed by TScratch software (CSE Lab, Zurich, Switzerland).

[2] = test system: MIA PaCa-2 cells; test: Clonogenic assay, MIA PaCa-2; format: cell-based, human; conditions: for number and area of colonies: MIA PaCa-2, higher concentration (90% of EC50), normoxia and hypoxia
Description: (§2) Compound effect on cell colony formation and growth was established by clonogenic assay, as previously published. […] Cells were incubated in a humidified atmosphere containing 5% CO2 at 37 °C and grown for 8 days. After incubation, the cells were rinsed with PBS and fixed with 10% formaldehyde, methanol-free (ThermoFisher Scientific, Waltham, MA, USA) solution for 20 min. Then the cells were rinsed with PBS two more times, and cell colonies were stained with 0.1% aqueous crystal violet solution (Sigma-Aldrich Co.) for 20 min, followed by rinses with sterile deionized water to remove the excess dye. Photos of colonies were taken using the G:BOX gel documentation system (Syngene International Ltd., Bengaluru, India) and Genesys software (Syngene International Ltd.). The number of colonies and their area were calculated using GeneTools colony and cell counting software (Syngene International Ltd.) according to the manufacturer’s instructions. Cell colony area and number in control groups were normalized to 100%. The percentage of drug-treated colony area and number were compared to the control.

[3] = test system: MIA PaCa-2 cells; test: 'Wound healing' migration assay, MIA PaCa-2; format: cell-based, human; conditions: for inhibition of migration, hypoxia compared with normoxia: MIA PaCa-2
Description: as §1

[4] = test system: PANC-1 cells; test: Clonogenic assay, PANC-1; format: cell-based, human; conditions: for PANC-1 cell colony formation (number) compared to the control: 90% of EC50, normoxia; for number and area of colonies: PANC-1, higher concentration (90% of EC50), normoxia and hypoxia
Description: as §2

[5] = test system: MIA PaCa-2 and PANC-1 cells; test: MTT cell viability, both pancreatic cancer cell lines; format: cell-based, human; conditions: for reduction of viability compared to sunitinib / reduction of cell viability: 1 µM; for reduction of viability compared to sunitinib: 72 h, both cancer cell lines; for reduction of cell viability: 72 h of incubation, at least one cell line; for activity on cell viability, comparison between cell lines: EC50 comparison MIA PaCa-2 vs PANC-1; for activity on cell viability, hypoxia compared with normoxia: EC50 comparison
Description: (§3) Cell viability was tested using MTT (3-(4,5-dimethylthiazol-2-yl)-2,5-diphenyltetrazolium bromide; Sigma-Aldrich Co.) assay, as described previously Briefly, MIA PaCa-2 and PANC-1 cells were seeded in 96-well plates (Corning, NY, USA) in a volume of 100 μL (4000 cells/well). After 24 h incubation, the cells were treated with sunitinib and its derivatives. Only the medium without cells was used as a positive control, and the medium with 0.5% DMSO (Sigma-Aldrich Co.) served as a negative control. After 72 h the cells were incubated with the 0.5 mg/mL of MTT solution for the next 4 h. The coloured formazan product was dissolved in 100 μL DMSO. The absorbance was measured spectrophotometrically at wavelengths 570 and 630 nm. […] When determining the EC50 values of the compounds under hypoxic conditions, the growth medium was supplemented with 100 µM of CoCl2 solution (97%, Alfa Aesar, MA, USA).

[6] = test system: human fibroblasts; test: MTT cell viability, human fibroblasts (selectivity); format: cell-based
[7] = test system: PANC-1 cells; conditions: cited from earlier work
[8] = test system: Capan-2 cell line; conditions: Capan-2, concentration-dependent; cited from earlier work
[9] = test system: BxPC-3 cell line; conditions: BxPC-3, concentration-dependent; cited from earlier work
[10] = test system: PANC-1 cells; parameters: method as in PMID 15202007; conditions: 10 μM; cited from earlier work
[11] = test system: MIA PaCa-2 cells; test: MTT cell viability assay, MIA PaCa-2; format: cell-based, human; conditions: for EC50: Homo sapiens, MIA PaCa-2, 72 h, 72 h, MTT
Description: as §3

[12] = test system: PANC-1 cells; test: MTT cell viability assay, PANC-1; format: cell-based, human; conditions: for EC50: Homo sapiens, PANC-1, 72 h, 72 h, MTT
Description: as §3

[13] = test system: PANC-1 cell monolayer; conditions: PANC-1, 1 μM, 24 h; cited from earlier work
[14] = normoxia, higher concentrations (90% of EC50)
[15] = MIA PaCa-2, hypoxia (100 µM CoCl2)

Compound: COc1ccc(C2CC(c3ccc4ccccc4c3)=NN2C2=NC(=O)/C(=C3/C(=O)Nc4ccc(I)cc43)S2)cc1 (stereo not drawn) [EMAC4006]
inhibition of migration, hypoxia compared with normoxia [1]: stronger under hypoxia than normoxia
MIA PaCa-2 cell colony formation ([2]; 90% of EC50, normoxia): statistically significantly inhibited
inhibition of migration, hypoxia compared with normoxia [3]: less than under normoxia
cell migration [3, 14]: inhibited cell migration
PANC-1 cell colony formation (number) compared to the control [4]: inhibited the colony formation of PANC-1 cells
reduction of viability compared to sunitinib [5]: statistically significantly stronger reduced
reduction of cell viability [5]: 90%
activity on cell viability, comparison between cell lines [5]: inhibited more efficiently the cell viability of the MIA PaCa-2 cell line

Compound: COc1ccc(C2CC(c3ccc4ccccc4c3)=NN2C2=NC(=O)/C(=C3/C(=O)Nc4ccc(C(F)(F)F)cc43)S2)cc1 (stereo not drawn) [EMAC4009]
effect on viability of non-cancerous cells (human fibroblasts) [6]: significantly reduce the viability of non-cancerous cells
reduction of viability compared to sunitinib [5]: statistically significantly stronger reduced
reduction of cell viability [5]: 90%

Compound: COc1ccc(C2CC(c3cccs3)=NN2C2=NC(=O)/C(=C3/C(=O)Nc4ccc(I)cc43)S2)cc1 (stereo not drawn) [EMAC4017]
inhibition of migration, hypoxia compared with normoxia [1]: stronger under hypoxia than normoxia
MIA PaCa-2 cell colony growth, hypoxia compared with normoxia [2]: stronger effect on the MIA PaCa-2 cell colony growth under hypoxia than normoxia
MIA PaCa-2 cell colony formation ([2]; hypoxia): significantly reduced the MIA PaCa-2 cell colony formation
MIA PaCa-2 colony number compared to sunitinib ([2]; lower concentration (10% of EC50), hypoxia): stronger than sunitinib
inhibition of migration, hypoxia compared with normoxia [3]: less than under normoxia
reduction of viability compared to sunitinib [5]: statistically significantly stronger reduced
reduction of cell viability [5]: 90%

Compound: COc1ccc(C2CC(c3ccc4ccccc4c3)=NN2C2=NC(=O)/C(=C3/C(=O)Nc4ccc(C)cc43)S2)cc1 (stereo not drawn) [EMAC4008]
inhibition of migration, hypoxia compared with normoxia [1]: stronger under hypoxia than normoxia
MIA PaCa-2 cell colony growth, hypoxia compared with normoxia [2]: stronger effect on the MIA PaCa-2 cell colony growth under hypoxia than normoxia
reduction of viability compared to sunitinib [5]: statistically significantly stronger reduced
reduction of cell viability [5]: 90%
activity on cell viability, hypoxia compared with normoxia [5]: more active against both cell lines under hypoxia conditions
activity on cell viability, comparison between cell lines [5]: more active in the PANC-1 cell line

Compound: COc1ccc(C2CC(c3ccc4ccccc4c3)=NN2C2=NC(=O)/C(=C3/C(=O)Nc4ccc(OC)cc43)S2)cc1 (stereo not drawn) [EMAC4007]
effect on viability of non-cancerous cells (human fibroblasts) [6]: significantly reduce the viability of non-cancerous cells
reduction of viability compared to sunitinib [5]: statistically significantly stronger reduced
reduction of cell viability [5]: 90%

Compound: CN(C)C/C=C/C(=O)Nc1cc2c(Nc3ccc(F)c(Cl)c3)ncnc2cc1O[C@H]1CCOC1 [Afatinib]
cell colony formation ([7]; PANC-1, 0.25 to 2 μM): did not show an effect
cell colony formation [8]: inhibited cell colony formation
cell colony formation [9]: inhibited cell colony formation

Compound: COc1cc2ncnc(Nc3ccc(F)c(Cl)c3)c2cc1OCCCN1CCOCC1 [Gefitinib]
reduction of viability of PANC-1 cells [10]: 78%

EC50 [11, 15]: 100 ± 13 nM
EC50 ([11]; MIA PaCa-2, normoxia): 113 ± 8 nM
EC50 ([12]; PANC-1, hypoxia (100 µM CoCl2)): 80 ± 5 nM
EC50 ([12]; PANC-1, normoxia): 98 ± 3 nM
Compound: COc1ccc(C2CC(c3ccc4ccccc4c3)=NN2C2=NC(=O)/C(=C3/C(=O)Nc4ccc(Cl)cc43)S2)cc1 (stereo not drawn) [EMAC4001]
inhibition of migration, hypoxia compared with normoxia [1]: the effect was the opposite
MIA PaCa-2 cell colony growth, hypoxia compared with normoxia [2]: stronger effect on the MIA PaCa-2 cell colony growth under hypoxia than normoxia
MIA PaCa-2 cell colony formation ([2]; 90% of EC50, normoxia): statistically significantly inhibited
number and size of cell colonies compared to sunitinib ([2]; MIA PaCa-2, 90% of EC50, normoxia and hypoxia): less of MIA PaCa-2 and PANC-1 cell colonies and they were smaller
number and area of colonies [2]: significantly reduced the number and area of colonies
inhibition of migration, hypoxia compared with normoxia [3]: more than in normoxia
cell migration [3, 14]: inhibited cell migration
times more active than sunitinib ([11]; MIA PaCa-2, hypoxia): 35 times
times more active than sunitinib ([11]; MIA PaCa-2, normoxia): 24 times
PANC-1 cell colony formation (number) compared to the control [4]: inhibited the colony formation of PANC-1 cells
number and size of cell colonies compared to sunitinib ([4]; PANC-1, 90% of EC50, normoxia and hypoxia): less of MIA PaCa-2 and PANC-1 cell colonies and they were smaller
number and area of colonies [4]: significantly reduced the number and area of colonies
selectivity towards cancer cells compared to human fibroblasts ([6]; MIA PaCa-2 and PANC-1 vs fibroblasts): most selective compound
times more active than sunitinib ([12]; PANC-1, hypoxia): 47 times
times more active than sunitinib ([12]; PANC-1, normoxia): 36 times
reduction of viability compared to sunitinib [5]: statistically significantly stronger reduced
reduction of cell viability [5]: 90%
activity on cell viability, comparison between cell lines [5]: more active in the PANC-1 cell line

EC50 [11, 15]: 3500 ± 300 nM
EC50 ([11]; MIA PaCa-2, normoxia): 2670 ± 210 nM
EC50 ([12]; PANC-1, hypoxia (100 µM CoCl2)): 3730 ± 210 nM
EC50 ([12]; PANC-1, normoxia): 3530 ± 210 nM
Compound: CCN(CC)CCNC(=O)c1c(C)[nH]c(/C=C2\C(=O)Nc3ccc(F)cc32)c1C [sunitinib, Sunitinib malate]
inhibition of migration, hypoxia compared with normoxia [1]: more under hypoxic conditions
'wound' area compared to the control ([1]; 24 h): no difference
'wound' area compared to the control ([1]; 48 h and 72 h): significantly larger
cell migration ([1]; PANC-1, 10 and 90% of EC50, normoxia and hypoxia): statistically significantly inhibited cell migration
'wound' area ([1]; PANC-1 monolayer, hypoxia, after 72 h): 68.81 ± 5.24%
MIA PaCa-2 cell colony formation ([2]; 90% of EC50, normoxia): statistically significantly inhibited
number and area of colonies [2]: significantly reduced the number and area of colonies
inhibition of migration, hypoxia compared with normoxia [3]: more under hypoxic conditions
cell migration ([3]; MIA PaCa-2, 10 and 90% of EC50, normoxia and hypoxia (except lower concentration under normoxia)): statistically significantly inhibited cell migration
change in 'wound' area compared to the control [13]: did not establish a significant difference
number and area of colonies [4]: significantly reduced the number and area of colonies
decrease of PANC-1 cell viability ([12]; 3.5 μM): up to 50%
activity on cell viability, hypoxia compared with normoxia [5]: more active under normoxia than hypoxia conditions
activity on cell viability, comparison between cell lines [5]: inhibited more efficiently the cell viability of the MIA PaCa-2 cell line

Compound: Cc1nc(Nc2ncc(C(=O)Nc3c(C)cccc3Cl)s2)cc(N2CCN(CCO)CC2)n1 [Dasatinib]
number of PANC-1 cell colonies ([7]; 10 μM): significantly reduced
